Laboratory results published in patent publication US9440969B2, “Compounds and methods for kinase modulation, and indications therefor” (PLEXXIKON INC., priority 2009, dated 2016).

Experiments:
CYP1A2 = biological target: T1, CYP1A2 (Homo sapiens, UniProt P05177); assay: CYP1A2 inhibition (fluorescent substrate CEC); format: in vitro ADME; conditions: read-out: Cyp IC50 (μM) 1A2
T1 sequence (P05177 1-516): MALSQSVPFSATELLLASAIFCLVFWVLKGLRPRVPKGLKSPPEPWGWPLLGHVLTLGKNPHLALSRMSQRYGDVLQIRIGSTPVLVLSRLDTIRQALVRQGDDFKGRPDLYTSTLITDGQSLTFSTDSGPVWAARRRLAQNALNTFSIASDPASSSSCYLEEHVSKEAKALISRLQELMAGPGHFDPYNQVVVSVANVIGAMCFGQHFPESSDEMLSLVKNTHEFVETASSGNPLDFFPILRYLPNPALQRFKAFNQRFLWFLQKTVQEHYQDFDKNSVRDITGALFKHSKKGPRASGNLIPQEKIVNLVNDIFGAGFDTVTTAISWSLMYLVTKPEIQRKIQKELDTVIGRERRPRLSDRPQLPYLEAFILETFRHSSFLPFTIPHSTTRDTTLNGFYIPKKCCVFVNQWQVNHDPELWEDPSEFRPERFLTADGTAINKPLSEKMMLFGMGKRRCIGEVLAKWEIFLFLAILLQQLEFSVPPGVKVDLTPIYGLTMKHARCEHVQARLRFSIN
How it was run: (§1)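 Human CYP enzymes with fluorogenic substrates and NADPH regeneration, compound preincubated 10 min at 37 °C in 10-point 1:1 dilution series. CYP1A2 0.5 pmol/5 μM CEC, 15 min, 409/460 nm; CYP2C9 1.0 pmol/75 μM MFC, 45 min, 409/530 nm; CYP2D6 1.5 pmol/1.5 μM AMMC, 30 min, 409/530 nm; CYP3A4 1.0 pmol/50 μM BFC, 30 min, 409/460 nm. IC50 from fluorescence vs concentration.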

CYP2C19 = CYP2C19 (Homo sapiens, UniProt P33261); assay: CYP2C19 inhibition (fluorescent substrate CEC); format: in vitro ADME; conditions: read-out: Cyp IC50 (μM) 2C19
CYP2C19, sequence (P33261 whole entry): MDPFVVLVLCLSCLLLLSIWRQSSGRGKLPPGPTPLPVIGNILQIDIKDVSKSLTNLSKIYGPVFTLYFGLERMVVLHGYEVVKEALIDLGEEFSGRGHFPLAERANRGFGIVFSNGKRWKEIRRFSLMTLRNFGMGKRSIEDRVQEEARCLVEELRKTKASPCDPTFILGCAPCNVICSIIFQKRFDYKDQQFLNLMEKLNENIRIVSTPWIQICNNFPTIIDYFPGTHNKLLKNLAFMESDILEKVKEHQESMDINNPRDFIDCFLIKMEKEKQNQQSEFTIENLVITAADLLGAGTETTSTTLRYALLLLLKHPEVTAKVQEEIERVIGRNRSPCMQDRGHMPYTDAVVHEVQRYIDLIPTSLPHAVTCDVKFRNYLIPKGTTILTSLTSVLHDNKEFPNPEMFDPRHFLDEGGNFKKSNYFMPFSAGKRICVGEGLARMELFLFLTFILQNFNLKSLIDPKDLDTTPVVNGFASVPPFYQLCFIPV

c-Raf-1 = c-Raf-1 (Homo sapiens, UniProt P04049); assay: c-Raf-1 kinase activity assay (AlphaScreen, biotin-MEK1 substrate); conditions: 100 μM ATP, 100 nM biotin-MEK1, 45 minutes at room temperature; read-out: Biochemical activity (IC50 μM) c-Raf-1
c-Raf-1, sequence (P04049 whole entry Y340D/Y341D, form open): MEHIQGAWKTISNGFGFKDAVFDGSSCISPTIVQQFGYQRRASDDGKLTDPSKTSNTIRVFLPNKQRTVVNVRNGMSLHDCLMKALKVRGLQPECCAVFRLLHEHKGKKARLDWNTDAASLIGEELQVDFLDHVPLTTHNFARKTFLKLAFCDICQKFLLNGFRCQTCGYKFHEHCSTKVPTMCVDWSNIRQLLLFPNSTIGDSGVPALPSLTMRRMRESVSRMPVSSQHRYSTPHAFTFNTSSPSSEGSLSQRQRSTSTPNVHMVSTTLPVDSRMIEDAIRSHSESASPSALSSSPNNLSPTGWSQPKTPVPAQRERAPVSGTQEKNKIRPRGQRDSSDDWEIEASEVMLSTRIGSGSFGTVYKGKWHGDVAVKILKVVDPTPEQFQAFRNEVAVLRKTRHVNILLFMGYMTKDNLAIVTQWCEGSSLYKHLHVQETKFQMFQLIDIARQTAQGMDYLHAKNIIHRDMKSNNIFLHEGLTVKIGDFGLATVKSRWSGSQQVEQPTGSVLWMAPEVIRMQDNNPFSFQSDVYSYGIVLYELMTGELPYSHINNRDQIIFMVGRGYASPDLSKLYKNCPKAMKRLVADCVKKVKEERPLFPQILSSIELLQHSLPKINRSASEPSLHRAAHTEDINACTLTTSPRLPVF
How it was run: (§2)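 AlphaScreen detection of phospho-MEK1 uses anti-phospho-MEK1/2 antibody and donor/acceptor beads, incubated 3 h. The kinase step runs 45 min at room temperature with 0.1 ng enzyme, 100 nM biotin-MEK1 and 100 μM ATP in 50 mM HEPES pH 7.0. IC50 is derived from eight compound concentrations.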

B-Raf = B-Raf (Homo sapiens, UniProt P15056); assay: B-Raf kinase activity assay (AlphaScreen, biotin-MEK1 substrate); conditions: 100 μM ATP, 100 nM biotin-MEK1, 45 minutes at room temperature; read-out: Biochemical activity (IC50 μM) B-Raf
B-Raf, sequence (P15056 whole entry): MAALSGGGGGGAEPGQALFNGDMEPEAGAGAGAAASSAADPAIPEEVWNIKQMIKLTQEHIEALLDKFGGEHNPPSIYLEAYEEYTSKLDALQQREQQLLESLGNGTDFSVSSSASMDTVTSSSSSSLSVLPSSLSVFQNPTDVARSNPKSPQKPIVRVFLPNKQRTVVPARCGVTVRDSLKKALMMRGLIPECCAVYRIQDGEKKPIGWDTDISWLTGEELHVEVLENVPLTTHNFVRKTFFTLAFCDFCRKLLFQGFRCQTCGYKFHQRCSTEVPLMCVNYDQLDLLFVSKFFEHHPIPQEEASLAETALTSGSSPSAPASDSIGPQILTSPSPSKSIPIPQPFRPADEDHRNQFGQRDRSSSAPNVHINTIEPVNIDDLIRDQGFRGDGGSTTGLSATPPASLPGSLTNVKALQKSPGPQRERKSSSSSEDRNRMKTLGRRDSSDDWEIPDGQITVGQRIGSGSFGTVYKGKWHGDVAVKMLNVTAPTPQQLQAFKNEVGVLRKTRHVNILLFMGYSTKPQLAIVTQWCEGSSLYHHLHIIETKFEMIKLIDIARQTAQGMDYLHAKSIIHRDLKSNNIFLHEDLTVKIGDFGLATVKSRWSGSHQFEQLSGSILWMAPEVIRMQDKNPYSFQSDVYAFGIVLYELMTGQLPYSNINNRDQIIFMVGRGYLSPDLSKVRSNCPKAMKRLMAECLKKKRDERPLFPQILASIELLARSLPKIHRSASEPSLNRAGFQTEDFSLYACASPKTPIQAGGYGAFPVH
How it was run: as §2

CYP3A4(BFC) = CYP3A4(BFC) (Homo sapiens, UniProt P08684); assay: CYP3A4 inhibition (substrate BFC); format: in vitro ADME; conditions: read-out: Cyp IC50 (μM) 3A4(BFC)
CYP3A4(BFC), sequence (P08684 whole entry): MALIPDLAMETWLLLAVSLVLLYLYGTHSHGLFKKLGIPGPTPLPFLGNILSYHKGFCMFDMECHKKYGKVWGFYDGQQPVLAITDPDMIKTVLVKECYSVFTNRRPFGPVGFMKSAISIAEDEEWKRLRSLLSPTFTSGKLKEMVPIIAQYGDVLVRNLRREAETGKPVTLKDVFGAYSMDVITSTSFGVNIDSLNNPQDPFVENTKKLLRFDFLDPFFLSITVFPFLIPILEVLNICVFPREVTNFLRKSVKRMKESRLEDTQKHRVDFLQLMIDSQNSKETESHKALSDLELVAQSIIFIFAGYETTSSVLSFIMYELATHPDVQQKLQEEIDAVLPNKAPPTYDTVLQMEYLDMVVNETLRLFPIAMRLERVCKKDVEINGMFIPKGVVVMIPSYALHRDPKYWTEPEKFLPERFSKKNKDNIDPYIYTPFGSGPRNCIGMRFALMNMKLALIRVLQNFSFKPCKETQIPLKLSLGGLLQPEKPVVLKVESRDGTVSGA
How it was run: as §1

CYP2D6 = CYP2D6 (Homo sapiens, UniProt P10635); assay: CYP2D6 inhibition (fluorescent substrate AMMC); format: in vitro ADME; conditions: read-out: Cyp IC50 (μM) 2D6
CYP2D6, sequence (P10635 whole entry): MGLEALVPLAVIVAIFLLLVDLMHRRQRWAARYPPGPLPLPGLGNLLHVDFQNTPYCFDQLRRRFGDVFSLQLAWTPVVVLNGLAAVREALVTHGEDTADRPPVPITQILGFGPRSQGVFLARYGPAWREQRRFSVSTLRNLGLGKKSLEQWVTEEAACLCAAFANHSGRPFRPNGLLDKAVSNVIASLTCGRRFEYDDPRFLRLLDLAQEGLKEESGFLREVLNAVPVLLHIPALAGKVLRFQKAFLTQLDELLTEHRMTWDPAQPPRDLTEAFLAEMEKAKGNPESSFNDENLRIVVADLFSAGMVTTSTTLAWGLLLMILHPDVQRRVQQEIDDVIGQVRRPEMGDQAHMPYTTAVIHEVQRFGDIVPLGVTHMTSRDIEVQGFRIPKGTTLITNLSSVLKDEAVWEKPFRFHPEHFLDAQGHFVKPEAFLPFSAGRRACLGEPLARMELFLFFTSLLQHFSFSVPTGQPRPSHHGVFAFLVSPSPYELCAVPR
How it was run: as §1

Row | Structure (SMILES) | IC50 (CYP1A2) [µM] | IC50 (CYP2C19) [µM] | IC50 (c-Raf-1) [µM] | IC50 (B-Raf) [µM] | IC50 (CYP3A4(BFC)) [µM] | IC50 (CYP2D6) [µM]
1 | CNC(=O)n1ncc2cc(-c3cnc4[nH]cc(C(=O)c5c(F)ccc(NS(=O)(=O)c6cc(F)ccc6F)c5F)c4c3)ccc21 [P-0003, 5-{3-[3-(2,5-Difluoro-benzenesulfonylamino)-2,6-difluoro-benzoyl]-1H-pyrrolo[2,3-b]pyridin-5-yl}-indazole-1-carboxylic acid methylamide] | > 10 | < 5 | < 0.1 | < 0.1 | > 10 | > 10
2 | CCCS(=O)(=O)Nc1ccc(F)c(C(=O)c2c[nH]c3ncc(-c4ccc5ncsc5c4)cc23)c1F [P-0020, Propane-1-sulfonic acid [3-(5-benzothiazol-6-yl-1H-pyrrolo[2,3-b]pyridine-3-carbonyl)-2,4-difluoro-phenyl]-amide] | > 10 | 5 to 10 | < 0.1 | < 0.1 | > 10 | > 10
3 | O=C(c1c(F)ccc(NS(=O)(=O)c2ccc(C(F)(F)F)cc2)c1F)c1c[nH]c2ncc(-c3cnn(C4CCNCC4)c3)cc12 [P-1004, N-{2,4-Difluoro-3-[5-(1-piperidin-4-yl-1H-pyrazol-4-yl)-1H-pyrrolo[2,3-b]pyridine-3-carbonyl]-phenyl}-4-trifluoromethyl-benzenesulfonamide] | > 10 | > 10 | < 0.1 | < 0.1 | 5 to 10 | > 10

Second part, the compound after the results:

Row | IC50 (CYP1A2) [µM] | IC50 (CYP2C19) [µM] | IC50 (c-Raf-1) [µM] | IC50 (B-Raf) [µM] | IC50 (CYP3A4(BFC)) [µM] | IC50 (CYP2D6) [µM] | Structure (SMILES)
4 | > 10 | > 10 | < 0.1 | < 0.1 | > 10 | > 10 | CCCS(=O)(=O)Nc1ccc(F)c(C(=O)c2c[nH]c3ncc(-c4cccc5nn(C)cc45)cc23)c1F [P-0015, Propane-1-sulfonic acid {2,4-difluoro-3-[5-(2-methyl-2H-indazol-4-yl)-1H-pyrrolo[2,3-b]pyridine-3-carbonyl]-phenyl}-amide]
5 | > 10 | > 10 | < 0.1 | < 0.1 | > 10 | > 10 | CCCS(=O)(=O)Nc1ccc(F)c(C(=O)c2c[nH]c3ncc(-c4ccc5nn(C)cc5c4)cc23)c1F [P-0010, Propane-1-sulfonic acid {2,4-difluoro-3-[5-(2-methyl-2H-indazol-5-yl)-1H-pyrrolo[2,3-b]pyridine-3-carbonyl]-phenyl}-amide]
